Experimental data from patent US7935714B2, “Compositions for sleeping disorders” (Bright Future Pharmaceutical Laboratories, priority 2004, dated 2011).

Test system: male Wistar rats
Experiment: Telemetry EEG study of NREM sleep (sleep latency and quality) in freely moving male Wistar rats
Type: in vivo
Details: for sleep latency / NREM sleep during the second hour following treatment / NREM sleep within the first hour following treatment: zolpidem
Description: Telemetric EEG, activity and temperature monitors were surgically implanted sub-coetaneously onto the lower backs of male Wistar rats, under ketamie and xyalsine (75/10 mg/kg, i.p.) anaesthesia. A skin incision was made above the scull and the transmitter tunnelled subcutaneously from the neck to the lower back with blunted scissors. The EEG leads were placed into two 0.5 mm holes that were drilled stererotaxically 2 mm anterior to Lambda and 1 mm to the left and right of centre, so that contact was made with the durra, and fixed with quick drying glue and reinforced with dental cement. The incision was then closed with 4-0 silk suture and post operative temgesic applied for pain relief. Following a 4 week recovery and acclimatization period in individually housed ventilated cages (12 hour light/12 hour dark cycle 20-25° C.), the rats were orally treated with either test compounds, positive controls or vehicle 45-30 min prior commencement of their light cycle (sleeping period). A Latin square dosing regiment was used where each rat received each of the drugs tested in random order with 4 days clearance time between each dosing. EEG waveforms were analysed using a power spectral analysis of each 5 second epoch and scored manually into % duration of NREM sleep for each hour over a 12 hour period. […] Data were analysed using Two-way ANOVA versus vehicle treatment (*p<0.05, n=7).

[1] = p.o., zopiclone 5 mg/kg, Compound Mixture 50 mg/kg, compared to vehicle
[2] = p.o., zopiclone 5 mg/kg, Compound Mixture 50 mg/kg, versus vehicle

Structure (SMILES)	sleep quality during the 6th hour of sleep (5 mg/kg p.o., versus vehicle)	sleep latency [1]	NREM sleep during the second hour following treatment [2]	NREM sleep within the first hour following treatment [2]	NREM sleep duration during the 8th hour [2]	NREM sleep during the remainder of the sleep period (5 mg/kg p.o., compared to vehicle)
CN1CCN(C(=O)OC2c3nccnc3C(=O)N2c2ccc(Cl)cn2)CC1 (stereo not drawn) [zopiclone]	negative effect on sleep quality	significantly reduce sleep latency	not significantly different from vehicle treatment	significantly increased	significantly improved	–
Cc1ccc(-c2nc3ccc(C)cn3c2CC(=O)N(C)C)cc1 [zolpidem]	–	significantly reduce sleep latency	not significantly different from vehicle treatment	significantly increased	–	failed to significantly improve NREM sleep
